Experimental data taken from patent US11149023B2, “Substituted triazole derivatives and uses thereof” (Bayer Pharma Aktiengesellschaft, priority 2017, dated 2021).

Assays:
human V2 receptor = human V2 receptor (Homo sapiens (Human), UniProt P30518); assay: Cellular in vitro assay for determining vasopressin receptor activity (V2, CRE-luciferase); type: cell-based; conditions: CHO cell line transfected with human V2 receptor; [Arg8]-vasopressin at EC50 concentration; read-out: IC50 hV2
human V1a receptor = human V1a receptor (Homo sapiens (Human), UniProt P37288); assay: Cellular in vitro assay for determining vasopressin receptor activity (V1a, aequorin luminescence); type: cell-based; conditions: for IC50: CHO cell line transfected with human V1a receptor, [Arg8]-vasopressin at EC50 concentration, read-out: IC50 hV1a; for ratio IC50 hV2/hV1a: selectivity, IC50 hV2 divided by IC50 hV1a
Chain of human V1a receptor (P37288 whole entry): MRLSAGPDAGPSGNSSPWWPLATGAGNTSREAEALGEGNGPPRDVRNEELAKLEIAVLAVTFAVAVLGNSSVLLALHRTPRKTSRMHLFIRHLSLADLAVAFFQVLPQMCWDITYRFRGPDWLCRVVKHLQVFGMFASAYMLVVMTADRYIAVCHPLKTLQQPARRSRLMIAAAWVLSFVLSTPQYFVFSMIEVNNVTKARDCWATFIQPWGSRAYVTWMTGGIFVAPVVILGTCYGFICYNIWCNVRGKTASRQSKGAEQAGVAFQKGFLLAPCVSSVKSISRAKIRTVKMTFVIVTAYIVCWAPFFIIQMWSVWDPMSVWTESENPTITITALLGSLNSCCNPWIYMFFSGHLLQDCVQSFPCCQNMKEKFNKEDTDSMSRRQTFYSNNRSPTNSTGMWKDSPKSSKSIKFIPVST

Chain of human V2 receptor (P30518 whole entry): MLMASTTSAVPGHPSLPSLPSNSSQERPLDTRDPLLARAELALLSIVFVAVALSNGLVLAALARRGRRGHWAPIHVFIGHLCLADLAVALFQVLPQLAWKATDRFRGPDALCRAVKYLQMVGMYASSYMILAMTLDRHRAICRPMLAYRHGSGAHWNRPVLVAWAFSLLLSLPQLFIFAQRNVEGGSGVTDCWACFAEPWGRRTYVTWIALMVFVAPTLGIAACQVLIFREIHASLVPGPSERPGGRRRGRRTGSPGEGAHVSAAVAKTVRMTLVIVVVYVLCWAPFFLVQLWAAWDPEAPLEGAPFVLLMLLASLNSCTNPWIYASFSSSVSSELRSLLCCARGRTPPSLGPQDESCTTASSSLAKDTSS

IC50 (human V2 receptor) [nM]	IC50 (human V1a receptor) [nM]	ratio IC50 hV2/hV1a (human V1a receptor)	Compound
167	2.9	57.6	O=C1NCCC1C(=O)NC(Cn1c(-c2ccc(Cl)cc2)nn(Cc2ncn(-c3ncccc3Cl)n2)c1=O)C(F)(F)F (stereo not drawn) [Example 51, N-{3-[3-(4-Chlorophenyl)-1-{[1-(3-chloropyridin-2-yl)-1H-1,2,4-triazol-3-yl]methyl}-5-oxo-1,5-dihydro-4H-1,2,4-triazol-4-yl]-1,1,1-trifluoropropan-2-yl}-2-oxopyrrolidine-3-carboxamide]
38	1.6	23.8	O=C(NC(Cn1c(-c2ccc(Cl)cc2)nn(Cc2ncn(-c3ncccc3Cl)n2)c1=O)C(F)(F)F)C1CC(F)(F)CN1 (stereo not drawn) [Example 53, N-{3-[3-(4-Chlorophenyl)-1-{[1-(3-chloropyridin-2-yl)-1H-1,2,4-triazol-3-yl]methyl}-5-oxo-1,5-dihydro-4H-1,2,4-triazol-4-yl]-1,1,1-trifluoropropan-2-yl}-4,4-difluoro-prolinamide]
165	3.9	42.3	CC(C)(C)OC(=O)N1CC(F)(F)C1C(=O)NC(Cn1c(-c2ccc(Cl)cc2)nn(Cc2ncn(-c3ncccc3Cl)n2)c1=O)C(F)(F)F (stereo not drawn) [Example 54, tert-Butyl 2-({3-[3-(4-chlorophenyl)-1-{[1-(3-chloropyridin-2-yl)-1H-1,2,4-triazol-3-yl]methyl}-5-oxo-1,5-dihydro-4H-1,2,4-triazol-4-yl]-1,1,1-trifluoropropan-2-yl}carbamoyl)-3,3-difluoro-azetidine-1-carboxylate]
106	1.95	54.4	O=C(NC(Cn1c(-c2ccc(Cl)cc2)nn(Cc2ncn(-c3ncccc3Cl)n2)c1=O)C(F)(F)F)C1NCC1(F)F (stereo not drawn) [Example 55, N-{3-[3-(4-Chlorophenyl)-1-{[1-(3-chloropyridin-2-yl)-1H-1,2,4-triazol-3-yl]methyl}-5-oxo-1,5-dihydro-4H-1,2,4-triazol-4-yl]-1,1,1-trifluoropropan-2-yl}-3,3-difluoroazetidine-2-carboxamide]
1030	8.1	126.8	CC(C)(C)OC(=O)N1CCC1C(=O)NC(Cn1c(-c2ccc(Cl)cc2)nn(Cc2ncn(-c3ncccc3Cl)n2)c1=O)C(F)(F)F (stereo not drawn) [Example 56, tert-Butyl 2-({3-[3-(4-chlorophenyl)-1-{[1-(3-chloropyridin-2-yl)-1H-1,2,4-triazol-3-yl]methyl}-5-oxo-1,5-dihydro-4H-1,2,4-triazol-4-yl]-1,1,1-trifluoropropan-2-yl}carbamoyl)azetidine-1-carboxylate]
1980	31.5	62.8	O=C(NC(Cn1c(-c2ccc(Cl)cc2)nn(Cc2ncn(-c3ncccc3Cl)n2)c1=O)C(F)(F)F)C1CCN1 (stereo not drawn) [Example 57, N-{3-[3-(4-Chlorophenyl)-1-{[1-(3-chloropyridin-2-yl)-1H-1,2,4-triazol-3-yl]methyl}-5-oxo-1,5-dihydro-4H-1,2,4-triazol-4-yl]-1,1,1-trifluoropropan-2-yl}azetidine-2-carboxamide]
245	5.4	45.4	O=C(NC(Cn1c(-c2ccc(Cl)cc2)nn(Cc2ncn(-c3ncccc3C(F)(F)F)n2)c1=O)C(F)(F)F)C1CC1(F)F (stereo not drawn) [Example 66, N-{3-[3-(4-Chlorophenyl)-5-oxo-1-({1-[3-(trifluoromethyl)pyridin-2-yl]-1H-1,2,4-triazol-3-yl}methyl)-1,5-dihydro-4H-1,2,4-triazol-4-yl]-1,1,1-trifluoropropan-2-yl}-2,2-difluorocyclopropane-1-carboxamide]
101	1.95	51.8	Cl.O=C(NC(Cn1c(-c2ccc(Cl)cc2)nn(Cc2ncn(-c3ncccc3C(F)(F)F)n2)c1=O)C(F)(F)F)C1NCC1(F)F (stereo not drawn) [Example 69, N-{3-[3-(4-Chlorophenyl)-5-oxo-1-({1-[3-(trifluoromethyl)pyridin-2-yl]-1H-1,2,4-triazol-3-yl}methyl)-1,5-dihydro-4H-1,2,4-triazol-4-yl]-1,1,1-trifluoropropan-2-yl}-3,3-difluoroazetidine-2-carboxamide]
445	6.35	70.1	Cl.O=C(NC(Cn1c(-c2ccc(Cl)cc2)nn(Cc2ncn(-c3ncccc3C(F)(F)F)n2)c1=O)C(F)(F)F)[C@@H]1C[C@@H](F)CN1 (stereo partly drawn) [Example 70, N-{3-[3-(4-Chlorophenyl)-5-oxo-1-({1-[3-(trifluoromethyl)pyridin-2-yl]-1H-1,2,4-triazol-3-yl}methyl)-1,5-dihydro-4H-1,2,4-triazol-4-yl]-1,1,1-trifluoropropan-2-yl}-4-fluoro-L-prolinamide]
275	4.9	56.1	Cl.O=C(NC(Cn1c(-c2ccc(Cl)cc2)nn(Cc2ncn(-c3ncccc3C(F)(F)F)n2)c1=O)C(F)(F)F)[C@@H]1C[C@H](F)CN1 (stereo partly drawn) [Example 71, N-{3-[3-(4-Chlorophenyl)-5-oxo-1-({1-[3-(trifluoromethyl)pyridin-2-yl]-1H-1,2,4-triazol-3-yl}methyl)-1,5-dihydro-4H-1,2,4-triazol-4-yl]-1,1,1-trifluoropropan-2-yl}-4-fluoro-L-prolinamide]
